Measurements: US9738902B2, “Modified PYR/PYL receptors activated by ligands” (priority 2013, dated 2017)

Key:
Format in all cases: cell-based
[1] = molecular target: T1, PYR1 K59R F108Q (Arabidopsis thaliana, UniProt O49686, F108Q/K59R); test: Y2H Pocket Library Screen (HAB1, X-gal)
T1 construct: expressed in transfected cells; host or cells: S. cerevisiae Y190 yeast two-hybrid reporter strain
Method in brief: (§1)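 Mutant PYR1 variants are screened in yeast two-hybrid against HAB1, with 100 μM compound in –Leu/–Trp dextrose agar; responsiveness is judged by X-gal staining after 2 days at 30° C.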

[2] = molecular target: T2, PYR1 Y58H K59R V81I F108A S122G F150L (PYR1^MANDI) (Arabidopsis thaliana, UniProt O49686, F108A/F159L/K59R/S122G/V81I/Y58H); test: Y2H Combinatorial Mutagenesis II (HAB1, X-gal); settings: PYR1^MANDI, yeast two hybrid
T2 construct: expressed in transfected cells; host or cells: S. cerevisiae Y190 pACT-HAB1
Description: (§2) Both of the above optimization experiments led to the identification of the following mutations that, when introduced one at a time, enhance the mandipropamid sensitivity of PYR1^K59R,F108A,S122G: Y58H, V81C, V81I, V81T, V83L, L87A, F159L, F159M, F159V, A160V and V164I. Given that these each enhance sensitivity on their own, we tested if combinations of these mutations might generate more sensitive receptors. Mutagenic primers for each of the mutations were designed and used simultaneously with the QuickChange Lightning Multi Site-Directed Mutagenesis kit (Agilent, USA) with PYR1^K59R,F108A,S122G template DNA. Individual clones were sequenced to identify bona fide combination mutants, which were transformed into the Y190 pACT-HAB1 yeast strain and assayed for mandipropamid sensitivity. These efforts led to the identification of several improved receptors (“Combinatorial Mutagenesis Screen II”, Table 1), including PYR1^Y58H,K59R,V81I,F108A,S122G,F159L, a hextuple mutant that we have named PYR1^MANDI. Yeast reporter strains expressing this mutant are responsive to mandipropamid concentrations as low as 2 nM (Table 1). Thus, the 5-step mutagenesis protocol we followed led to the construction of a mandipropamid responsive receptor with nanomolar sensitivity.

[3] = molecular target: T3, PYR1 Y58H K59R V81I F108A S122G V164I (Arabidopsis thaliana, UniProt O49686, F108A/K59R/S122G/V164I/V81I/Y58H); test: Y2H Combinatorial Mutagenesis II (HAB1, X-gal)
T3 construct: expressed in transfected cells; host or cells: S. cerevisiae Y190 pACT-HAB1
Description: as §2

[4] = molecular target: T4, PYR1 K59R V81I F108A S122G A160V (Arabidopsis thaliana, UniProt O49686, A160V/F108A/K59R/S122G/V81I); test: Y2H Combinatorial Mutagenesis II (HAB1, X-gal)
T4 construct: expressed in transfected cells; host or cells: S. cerevisiae Y190 pACT-HAB1
Description: as §2

[5] = molecular target: T5, PYR1 Y58H K59R V81I F108A S122G (PYR1^MANDI) (Arabidopsis thaliana, UniProt O49686, F108A/F159L/K59R/S122G/V81I/Y58H); test: Y2H Combinatorial Mutagenesis II (HAB1, X-gal); settings: Y58H K59R V81I F108A S122G F150L
T5 construct: expressed in transfected cells; host or cells: S. cerevisiae Y190 pACT-HAB1
Description: as §2

[6] = molecular target: T6, PYR1 Y58H K59R V81I F108A S122G (Arabidopsis thaliana, UniProt O49686, F108A/K59R/S122G/V81I/Y58H); test: Y2H Combinatorial Mutagenesis II (HAB1, X-gal)
T6 construct: expressed in transfected cells; host or cells: S. cerevisiae Y190 pACT-HAB1
Description: as §2

[7] = molecular target: T7, PYR1 Y58H K59R V83L F108A S122G (Arabidopsis thaliana, UniProt O49686, F108A/K59R/S122G/V83L/Y58H); test: Y2H Combinatorial Mutagenesis II (HAB1, X-gal)
T7 construct: expressed in transfected cells; host or cells: S. cerevisiae Y190 pACT-HAB1
Description: as §2

[8] = molecular target: T8, PYR1 K59R V164H (Arabidopsis thaliana, UniProt O49686, K59R/V164H); test: Y2H Pocket Library Screen (HAB1, X-gal)
T8 construct: expressed in transfected cells; host or cells: S. cerevisiae Y190
Method in brief: as §1

[9] = molecular target: T9, PYR1 K59R V164S (Arabidopsis thaliana, UniProt O49686, K59R/V164S); test: Y2H Pocket Library Screen (HAB1, X-gal)
T9 construct: expressed in transfected cells; host or cells: S. cerevisiae Y190 two-hybrid reporter strain
Method in brief: as §1

[10] = molecular target: T10, PYR1 K59R N167G (Arabidopsis thaliana, UniProt O49686, K59R/N167G); test: Y2H Pocket Library Screen (HAB1, X-gal)
T10 construct: expressed in transfected cells; host or cells: S. cerevisiae Y190 two-hybrid reporter strain
Method in brief: as §1

[11] = molecular target: T11, PYR1 K59R M158C (Arabidopsis thaliana, UniProt O49686, K59R/M158C); test: Y2H Pocket Library Screen (HAB1, X-gal)
T11 construct: expressed in transfected cells; host or cells: S. cerevisiae Y190 two-hybrid reporter strain
Method in brief: as §1

T8 sequence (O49686 whole entry K59R/V164H): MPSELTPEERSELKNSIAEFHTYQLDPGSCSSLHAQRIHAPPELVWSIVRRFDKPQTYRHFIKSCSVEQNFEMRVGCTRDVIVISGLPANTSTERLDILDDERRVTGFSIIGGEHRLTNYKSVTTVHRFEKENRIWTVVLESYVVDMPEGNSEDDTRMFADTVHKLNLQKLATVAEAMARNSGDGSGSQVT
T8 sequence (Q9CAJ0 23-511 partner): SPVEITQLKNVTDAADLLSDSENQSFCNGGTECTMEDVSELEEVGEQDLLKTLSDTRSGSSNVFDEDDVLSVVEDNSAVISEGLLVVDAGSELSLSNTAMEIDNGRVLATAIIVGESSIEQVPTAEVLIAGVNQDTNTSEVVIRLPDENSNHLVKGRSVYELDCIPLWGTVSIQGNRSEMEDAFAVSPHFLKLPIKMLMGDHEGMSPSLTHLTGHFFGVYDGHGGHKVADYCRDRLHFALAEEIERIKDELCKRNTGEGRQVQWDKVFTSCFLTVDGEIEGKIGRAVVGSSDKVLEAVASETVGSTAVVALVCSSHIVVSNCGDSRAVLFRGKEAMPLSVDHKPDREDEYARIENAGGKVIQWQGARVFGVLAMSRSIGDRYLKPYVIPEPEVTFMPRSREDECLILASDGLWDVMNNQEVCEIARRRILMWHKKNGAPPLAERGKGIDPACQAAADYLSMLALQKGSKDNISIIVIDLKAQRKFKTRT
T6 sequence (O49686 whole entry Y58H/K59R/V81I/F108A/S122G): as the sequence (O49686 whole entry K59R/V164H) above, with Y58H, V81I, F108A, S122G, H164V counted along it
T6 sequence (Q9CAJ0 23-511 partner): as the sequence (Q9CAJ0 23-511 partner) above
T7 sequence (O49686 whole entry Y58H/K59R/V83L/F108A/S122G): as the sequence (O49686 whole entry K59R/V164H) above, with Y58H, V83L, F108A, S122G, H164V counted along it
T7 sequence (Q9CAJ0 23-511 partner): as the sequence (Q9CAJ0 23-511 partner) above
T1 sequence (O49686 whole entry K59R/F108Q): as the sequence (O49686 whole entry K59R/V164H) above, with F108Q, H164V counted along it
T1 sequence (Q9CAJ0 23-511 partner): as the sequence (Q9CAJ0 23-511 partner) above
T11 sequence (O49686 whole entry K59R/M158C): as the sequence (O49686 whole entry K59R/V164H) above, with M158C, H164V counted along it
T11 sequence (Q9CAJ0 23-511, further chain): as the sequence (Q9CAJ0 23-511 partner) above
T4 sequence (O49686 whole entry K59R/V81I/F108A/S122G/A160V): as the sequence (O49686 whole entry K59R/V164H) above, with V81I, F108A, S122G, A160V, H164V counted along it
T4 sequence (Q9CAJ0 23-511 partner): as the sequence (Q9CAJ0 23-511 partner) above
T10 sequence (O49686 whole entry K59R/N167G): as the sequence (O49686 whole entry K59R/V164H) above, with H164V, N167G counted along it
T10 sequence (Q9CAJ0 23-511 partner): as the sequence (Q9CAJ0 23-511 partner) above
T2 sequence (O49686 whole entry Y58H/K59R/V81I/F108A/S122G/F159L): as the sequence (O49686 whole entry K59R/V164H) above, with Y58H, V81I, F108A, S122G, F159L, H164V counted along it
T2 sequence (Q9CAJ0 23-511 partner): as the sequence (Q9CAJ0 23-511 partner) above
T5 sequence (O49686 whole entry Y58H/K59R/V81I/F108A/S122G/F159L): as the sequence (O49686 whole entry K59R/V164H) above, with Y58H, V81I, F108A, S122G, F159L, H164V counted along it
T5 sequence (Q9CAJ0 23-511 partner): as the sequence (Q9CAJ0 23-511 partner) above
T3 sequence (O49686 whole entry Y58H/K59R/V81I/F108A/S122G/V164I): as the sequence (O49686 whole entry K59R/V164H) above, with Y58H, V81I, F108A, S122G, H164I counted along it
T3 sequence (Q9CAJ0 23-511 partner): as the sequence (Q9CAJ0 23-511 partner) above
T9 sequence (O49686 whole entry K59R/V164S): as the sequence (O49686 whole entry K59R/V164H) above, with H164S counted along it
T9 sequence (Q9CAJ0 23-511 partner): as the sequence (Q9CAJ0 23-511 partner) above

C#CCOc1ccc(CCNC(=O)C(OCC#C)c2ccc(Cl)cc2)cc1OC (centres unmarked) [Mandipropamid, mandipropamid]
Threshold [1]: 100 µM | lowest mandipropamid concentration with detectable PYR1^MANDI-HAB1 interaction in yeast reporter strain [2]: 2 nM | Threshold [3]: 0.01 µM | Threshold [4]: 0.05 µM | Threshold [5]: 0.002 µM | Threshold [6]: 0.05 µM | Threshold [7]: 0.01 µM

N#Cc1c(Cl)cccc1Cl [Dichlobenil, dichlobenil]
Threshold [8]: 100 µM | Threshold [9]: 100 µM | Threshold [10]: 100 µM | Threshold [11]: 100 µM
